Measured values as given in patent US20140243292A1, “SUBSITUTED 2-(CHROMAN-6-YLOXYL)-THIAZOLES AND THEIR USE AS PHARMACEUTICALS” (Sanofi, priority 2011, published 2014).
Counter-ions that a name gives are not always drawn.

Target: T1, human NCX1 (Homo sapiens, UniProt P32418)
T1 construct: expressed in transfected cells
Experiment: NCX1 inhibition, reverse mode (Ca2+ influx into cells), FLIPR Fluo-4 assay
Type: cell-based
Conditions: NCX1 reverse mode; at 30 μM; read-out: Inhibition in % at 30 μM (NCX1rv; IC50 value not determined)
Outline: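 Max−min Fluo-4 fluorescence (520 nm, FLIPR, 240 points at 2 s) after 20 µM final gramicidin, which drives Na+ loading and reverse-mode Ca2+ entry, gave % inhibition and IC50. Test compound was preincubated 45 min at 16 °C with Fluo-4-loaded CHO cells stably expressing human NCX1, in pH 7.4 buffer containing 3.5 mM CaCl2 and probenecid.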

Row | inhibition at 30 µM [%] | SMILES
1 | 38 | O=C(O)CNC(=O)c1cnc(Oc2ccc3c(c2)CCC(c2cccnc2)O3)s1 (stereo not shown) [compound 260]
2 | 38 | CC(C)c1ccc(NC(=O)c2cnc(Oc3ccc4c(c3)CC[C@@H](c3ccccc3)O4)s2)cc1 [compound 280]

Same assay, conditions: inhibition of NCX1 in reverse mode (Ca2+ influx into cells); read-out: NCX1rv IC50

Row | IC50 [µM] | SMILES
3 | 0.2 | OCCN(CCO)Cc1cnc(Oc2ccc3c(c2)CC[C@@H](c2ccccc2)O3)s1 [compound 258]
4 | 1.8 | O=C(c1cnc(Oc2ccc3c(c2)CCC(c2cccnc2)O3)s1)N1CCC[C@H]1CO (stereo partly shown) [compound 259]
5 | 3.1 | CC[C@H](C)[C@H](NC(=O)c1cnc(Oc2ccc3c(c2)CCC(c2cccnc2)O3)s1)C(=O)OC (stereo partly shown) [compound 261]
6 | 0.8 | CCOC(=O)[C@H](Cc1ccccc1)NC(=O)c1cnc(Oc2ccc3c(c2)CCC(c2cccnc2)O3)s1 (stereo partly shown) [compound 262]
7 | 25.2 | CCOC(=O)[C@@H](NC(=O)c1cnc(Oc2ccc3c(c2)CCC(c2cccnc2)O3)s1)C(C)C (stereo partly shown) [compound 263]
8 | 3.1 | COC(=O)[C@@H](NC(=O)c1cnc(Oc2ccc3c(c2)CCC(c2cccnc2)O3)s1)C(C)(C)C (stereo partly shown) [compound 264]
9 | 7.3 | NC1CC(NC(=O)c2cnc(Oc3ccc4c(c3)CCC(c3cccnc3)O4)s2)C1 (stereo not shown) [compound 265, hydrochloride]
10 | 0.1 | OCCNCc1cnc(Oc2ccc3c(c2)CC[C@@H](c2ccccc2)O3)s1 [compound 266]
11 | 0.6 | N[C@H]1C[C@@H]1NC(=O)c1cnc(Oc2ccc3c(c2)CCC(c2cccnc2)O3)s1 (stereo partly shown) [compound 267, hydrochloride]
12 | 2.5 | O=C(NC1C2CNCC21)c1cnc(Oc2ccc3c(c2)CCC(c2cccnc2)O3)s1 (stereo not shown) [compound 268]
13 | 2.6 | CO[C@H]1CNC[C@@H]1NC(=O)c1cnc(Oc2ccc3c(c2)CCC(c2cccnc2)O3)s1 (stereo partly shown) [compound 269, hydrochloride]
14 | 12.5 | CC[C@H](C)[C@H](NC(=O)c1cnc(Oc2ccc3c(c2)CCC(c2cccnc2)O3)s1)C(=O)O (stereo partly shown) [compound 270]
15 | 12.1 | O=C(N[C@@H](Cc1ccccc1)C(=O)O)c1cnc(Oc2ccc3c(c2)CCC(c2cccnc2)O3)s1 (stereo partly shown) [compound 271]
16 | 15.6 | CC(C)[C@H](NC(=O)c1cnc(Oc2ccc3c(c2)CCC(c2cccnc2)O3)s1)C(=O)O (stereo partly shown) [compound 272]
17 | 10.1 | CC(C)(C)[C@H](NC(=O)c1cnc(Oc2ccc3c(c2)CCC(c2cccnc2)O3)s1)C(=O)O (stereo partly shown) [compound 273]
18 | 0.4 | Cc1cc(CNC(=O)c2cnc(Oc3ccc4c(c3)CC[C@@H](c3ccccc3)O4)s2)ccn1 [compound 274, hydrochloride]
19 | 0.4 | CCOC(=O)[C@H](C)NC(=O)c1cnc(Oc2ccc3c(c2)CCC(c2cccnc2)O3)s1 (stereo partly shown) [compound 276]
20 | 2 | O=C(NCc1ccno1)c1cnc(Oc2ccc3c(c2)CCC(c2ccc(Cl)nc2)O3)s1 (stereo not shown) [compound 277, hydrochloride]
21 | 1.3 | O=C(NCc1ccnc(Cl)c1)c1cnc(Oc2ccc3c(c2)CCC(c2ccc(Cl)nc2)O3)s1 (stereo not shown) [compound 278, hydrochloride]
22 | 0.6 | CCCNC(=O)c1cnc(Oc2ccc3c(c2)CC[C@@H](c2ccccc2)O3)s1 [compound 281]
23 | 1.2 | CC1(C)CN(C(=O)c2cnc(Oc3ccc4c(c3)CC[C@@H](c3ccccc3)O4)s2)CCN1 [compound 282]
24 | 0.6 | O=C(c1cnc(Oc2ccc3c(c2)CC[C@@H](c2ccccc2)O3)s1)N1CC[C@H]2CNC[C@H]21 [compound 283, hydrochloride]
25 | 0.2 | NC1C[C@@H]1NC(=O)c1cnc(Oc2ccc3c(c2)CC[C@@H](c2ccccc2)O3)s1 (stereo partly shown) [compound 284, hydrochloride]
26 | 0.9 | CN[C@H]1CN(C(=O)c2cnc(Oc3ccc4c(c3)CC[C@@H](c3ccccc3)O4)s2)CC[C@H]1C [compound 285, hydrochloride]

Row | IC50 [µM] | SMILES
27 | 1.5 | CN(C)CC1CN(C(=O)c2cnc(Oc3ccc4c(c3)CC[C@@H](c3ccccc3)O4)s2)CCO1 (stereo partly shown) [compound 286]
28 | 0.5 | O=C(NCC1CCCCN1)c1cnc(Oc2ccc3c(c2)CC[C@@H](c2ccccc2)O3)s1 (stereo partly shown) [compound 287]
29 | 0.4 | O=C(c1cnc(Oc2ccc3c(c2)CC[C@@H](c2ccccc2)O3)s1)N1CCCCC1 [compound 288]
30 | 0.6 | O=C(c1cnc(Oc2ccc3c(c2)CC[C@@H](c2ccccc2)O3)s1)N1CCC2(CCCNC2)C1 (stereo partly shown) [compound 290]
31 | 0.4 | NCC1CCCN1C(=O)c1cnc(Oc2ccc3c(c2)CC[C@@H](c2ccccc2)O3)s1 (stereo partly shown) [compound 291]
32 | 0.3 | NC1CCN(C(=O)c2cnc(Oc3ccc4c(c3)CC[C@@H](c3ccccc3)O4)s2)C1 (stereo partly shown) [compound 292]
33 | 1 | NC[C@@H]1[C@H]2CC[C@H](C2)[C@H]1NC(=O)c1cnc(Oc2ccc3c(c2)CC[C@@H](c2ccccc2)O3)s1 [compound 293]
34 | 0.2 | COC(=O)CNC(=O)c1cnc(Oc2ccc3c(c2)CCC(c2ccccc2)O3)s1 (stereo not shown) [compound 294]
35 | 0.4 | O=C(NCCO)c1cnc(Oc2ccc3c(c2)CCC(c2ccccc2)O3)s1 (stereo not shown) [compound 295]
36 | 0.4 | Cc1noc(C)c1CCC(=O)NCc1cnc(Oc2ccc3c(c2)CC[C@@H](c2ccccc2)O3)s1 [compound 296]
37 | 1.1 | Cc1nn(C)c(C)c1CCC(=O)NCc1cnc(Oc2ccc3c(c2)CC[C@@H](c2ccccc2)O3)s1 [compound 297]
38 | 0.6 | O=C(c1cnc(Oc2ccc3c(c2)CCC(c2ccccc2)O3)s1)N1CC[C@@H](O)C1 (stereo partly shown) [compound 298]
39 | 0.2 | Cc1ccccc1C1CCc2cc(Oc3ncc(C(=O)N4CC[C@@H](O)C4)s3)ccc2O1 (stereo partly shown) [compound 300]
40 | 6.9 | CS(=O)(=O)c1ccc(C2CCc3cc(Oc4ncc(C(=O)NCc5ccno5)s4)ccc3O2)cc1 (stereo not shown) [compound 301]
41 | 0.4 | NCC(=O)NCc1cnc(Oc2ccc3c(c2)CC[C@@H](c2ccccc2)O3)s1 [compound 302]
42 | 0.3 | C[C@H](N)C(=O)NCc1cnc(Oc2ccc3c(c2)CC[C@@H](c2ccccc2)O3)s1 [compound 303]
43 | 1.9 | N[C@@H](Cc1ccccc1)C(=O)NCc1cnc(Oc2ccc3c(c2)CC[C@@H](c2ccccc2)O3)s1 [compound 304]
44 | 0.3 | O=C(NCC(O)CO)c1cnc(Oc2ccc3c(c2)CCC(c2ccccc2)O3)s1 (stereo not shown) [compound 305]
45 | 0.5 | CC(C)(C)OC(=O)CNC(=O)c1cnc(Oc2ccc3c(c2)CCC(c2ccccc2)O3)s1 (stereo not shown) [compound 306]
46 | 0.2 | CC(C)OC(=O)CNC(=O)c1cnc(Oc2ccc3c(c2)CCC(c2ccccc2)O3)s1 (stereo not shown) [compound 307]
47 | 0.2 | CCOC(=O)CNC(=O)c1cnc(Oc2ccc3c(c2)CCC(c2ccccc2)O3)s1 (stereo not shown) [compound 308]
48 | 4.7 | O=C(NCc1ccno1)c1cnc(Oc2ccc3c(c2)CCC(c2cnccn2)O3)s1 (stereo not shown) [compound 309]
49 | 2.6 | O=C(NCc1ccnc(Cl)c1)c1cnc(Oc2ccc3c(c2)CCC(c2cnccn2)O3)s1 (stereo not shown) [compound 310]
50 | 0.1 | OCCNCc1cnc(Oc2ccc3c(c2)CCC(c2ccccc2)O3)s1 (stereo not shown) [compound 311]

Row | IC50 [µM] | SMILES
51 | 0.1 | O=C(c1cnc(Oc2ccc3c(c2)CCC(c2ccccc2)O3)s1)N(CCO)CCO (stereo not shown) [compound 312]
52 | 0.4 | CN1CCN(C(=O)c2cnc(Oc3ccc4c(c3)CCC(c3ccccc3)O4)s2)CC1 (stereo not shown) [compound 313]
53 | 0.1 | O=C(c1cnc(Oc2ccc3c(c2)CCC(c2ccccc2)O3)s1)N1CCOCC1 (stereo not shown) [compound 314]
54 | 0.5 | O=C(c1cnc(Oc2ccc3c(c2)CCC(c2ccccc2)O3)s1)N1CCCCC1 (stereo not shown) [compound 316]
55 | 0.1 | CCCCNC(=O)c1cnc(Oc2ccc3c(c2)CCC(c2ccccc2)O3)s1 (stereo not shown) [compound 317]
56 | 0.1 | CC(C)CNC(=O)c1cnc(Oc2ccc3c(c2)CCC(c2ccccc2)O3)s1 (stereo not shown) [compound 318]
57 | 0.8 | OCCN(CCO)Cc1cnc(Oc2ccc3c(c2)CCC(c2ccccc2)O3)s1 (stereo not shown) [compound 319]
58 | 0.3 | CC(C)NC(=O)c1cnc(Oc2ccc3c(c2)CCC(c2ccccc2)O3)s1 (stereo not shown) [compound 320]
59 | 1.1 | CCc1ccccc1C1CCc2cc(Oc3ncc(C(=O)NCCN4CCNC4=O)s3)ccc2O1 (stereo not shown) [compound 322]
60 | 0.9 | CCc1ccccc1C1CCc2cc(Oc3ncc(C(=O)NCCc4c(C)noc4C)s3)ccc2O1 (stereo not shown) [compound 323]
61 | 0.5 | CCc1ccccc1C1CCc2cc(Oc3ncc(C(=O)NCc4ccno4)s3)ccc2O1 (stereo not shown) [compound 324]
62 | 0.9 | Cc1ccccc1C1CCc2cc(Oc3ncc(CNC(=O)CN4C(=O)CNC4=O)s3)ccc2O1 (stereo not shown) [compound 328]
63 | 5.5 | Cc1cccc(C)c1C1CCc2cc(Oc3ncc(C(=O)NCc4ccno4)s3)ccc2O1 (stereo not shown) [compound 331]
64 | 10 | CCCNC(=O)c1sc(Oc2ccc3c(c2)CCC(c2ccccc2C)O3)nc1C (stereo not shown) [compound 332]
65 | 0.6 | Cc1ccccc1C1CCc2cc(Oc3nc(C)c(C(=O)NCCN4CCNC4=O)s3)ccc2O1 (stereo not shown) [compound 333]
66 | 0.6 | Cc1ccccc1C1CCc2cc(Oc3nc(C)c(C(=O)N4CC[C@@H](O)C4)s3)ccc2O1 (stereo partly shown) [compound 336]
67 | 7.6 | Cc1cccc(C)c1C1CCc2cc(Oc3ncc(C(=O)NCCO)s3)ccc2O1 (stereo not shown) [compound 337]
68 | 8.7 | Cc1cccc(C)c1C1CCc2cc(Oc3ncc(C(=O)N(C)C)s3)ccc2O1 (stereo not shown) [compound 338]
69 | 0.4 | NC(=O)c1cnc(Oc2ccc3c(c2)CCC(c2ccccc2)O3)s1 (stereo not shown) [compound 339]
70 | 0.9 | N[C@@H](CO)C(=O)NCc1cnc(Oc2ccc3c(c2)CCC(c2ccccc2)O3)s1 (stereo partly shown) [compound 340, hydrochloride]
71 | 0.9 | O=C(NCc1cnc(Oc2ccc3c(c2)CCC(c2ccccc2)O3)s1)[C@@H]1CCCN1 (stereo partly shown) [compound 341, hydrochloride]
72 | 0.8 | Cc1ccc(F)cc1C1CCc2cc(Oc3ncc(C(=O)NCc4ccno4)s3)ccc2O1 (stereo not shown) [compound 344]
73 | 0.17 | O=C(CN1CCCC1)NCc1cnc(Oc2ccc3c(c2)CCC(c2ccccc2)O3)s1 (stereo not shown) [compound 346, hydrochloride]
